# Measurements taken from US9694401B2, “Method and apparatus for treating perfluoroalkyl compounds” (ThinkVillage-Kerfoot, LLC, priority 2013, dated 2017).
# Counter-ions that a name gives are not always drawn. Like-named read-outs stand apart in the source and are kept apart here.
# What was measured:
# [1] = Bench scale soil treatment (2400 ppmV O3), groundwater over soil slurry; assay type: physicochemical; conditions: for PFC concentration in groundwater over soil slurry, 30 MIN / PFC concentration in groundwater over soil slurry, 60 MIN / PFC concentration in groundwater over soil slurry, 120 MIN / % REMOVAL in groundwater over soil slurry: 2400 ppmV O3, 10% peroxide; for % REMOVAL in groundwater over soil slurry: start to 120 MIN
# Method: (§1) On one foam fire-fighting site, samples of groundwater from monitoring well 1 (MW1) and soil samples between MW1 and monitoring well 3 (MW3) were shipped to the laboratory in coolers with blue ice packing to maintain the temperature at less than 4.4° C. (40° F.). Two sets of tests were conducted, groundwater and soil treatment.
# (§2) For soil samples, 1000 cm^3 of soil was mixed together and then separated into four 250 cm^3 aliquots. The first was submitted as background (start) condition. The remaining three were treated with a fine bubble-coated ozone bubble solution from the pressurized generator (20-25 psi). The ozone concentration was 2400 ppmV with a flow of 5 cm^3/sec. The peroxide was 10% solution and supplied at 5 cm^3/min flow. The generator was filled with 500 liters of groundwater from the site well (MW1) which was delivered in 50 cm^3 surges to a two-liter flask with the soil under constant stirring action. The subsequent reaction raised the temperature of the soil/liquid solution from 20.6° C. (69° F.) to 22.8° C. (73° F.) after 10 minutes, reaching 41.1° C. (106° F.) after 30 minutes. For the 30-minute treatment, no further bubble solution was added; the flask was placed over water until bubbling ceased or two hours and then placed in chilled water. The overlying groundwater was decanted off, and the underlying semi-solid was placed in a glass jar and chilled for transport for analysis. A similar procedure was followed for the 60- and 120-minute soil aliquots.
# [2] = Bench scale soil treatment with peroxide-coated ozone nanobubbles (2400 ppmV O3), soil fraction; assay type: physicochemical; conditions: for decomposing the other PF compounds (removal) by the new solution: matrix not given; for removal in the soil series: 2400 ppmV O3, 41.1° C. to 43.3° C.
# Method: as §1, §2
# [3] = Bench scale groundwater treatment with peroxide-coated ozone nanobubbles (1260 ppmV O3, 10% H2O2); assay type: physicochemical; conditions: 1260 ppmV O3, 10% H2O2, 3 HR
# [4] = as above; assay type: physicochemical; conditions: for PFC concentration in groundwater, 1 HR: 1260 ppmV O3, 10% H2O2, 1 HR; for PFC concentration in groundwater, 2 HR: 1260 ppmV O3, 10% H2O2, 2 HR; for % REMOVAL from groundwater: 1260 ppmV O3, 10% H2O2, start to last time point; for PFC concentration in groundwater, START: untreated start (0 minutes)
# Method: as §1
# Bench scale tests were conducted in a pressurized glass cylindrical reaction cell (17-20 psi) holding a laminar stainless steel spargepoint with a 0.20-micron porous surface. Four liters of groundwater were mixed together. A liter of distilled water as a blank was treated and set aside for analysis. The first liter of groundwater was also set aside as “start” condition (0 minutes). One liter of groundwater from MW1 was added to the cell. An ozone flow of 5 cm^3/sec was added at 1260 ppmV. Peroxide (10%) flow was 8 cm^3/minute and treated for 30 minutes. Pressure was 17-20 psi.
# A second liter was added to the chamber and treated for 60 minutes. The blank, original (start), 30 minute, and 60 minute samples were placed in ice for analysis. A final sample (120 minute) was treated with 60 minutes of peroxide, but ozone continued for 120 minutes.
# [5] = cited from earlier work; for Water Solubility: at 25° C.
# [6] = cited from earlier work
# [7] = cited from earlier work; remark: listed apart in the source
# [8] = cited from earlier work; remark: listed apart in the source
# [9] = 155 mg/L PFOA, 12 g/L persulfate, 80° C., cited from earlier work
# [10] = cited from earlier work; remark: listed apart in the source
SMILES,"PFC concentration in groundwater over soil slurry, 30 MIN [1]","PFC concentration in groundwater over soil slurry, 60 MIN [1]","PFC concentration in groundwater over soil slurry, 120 MIN [1]",% REMOVAL in groundwater over soil slurry [1] [%],"PFC concentration in groundwater over soil slurry, START [1]",decomposing the other PF compounds (removal) by the new solution [2] [%],"PFC concentration in groundwater, 3 HR [3]","PFC concentration in groundwater, 1 HR [4]","PFC concentration in groundwater, 2 HR [4]",% REMOVAL from groundwater [4] [%],"PFC concentration in groundwater, START [4]",Acidity (pKa) [8],also measured
"O=S(=O)(O)C(F)(F)C(F)(F)C(F)(F)C(F)(F)C(F)(F)C(F)(F)F [PFHxS, perfluorohexane sulfonate]",87,14,8,97.4,300,98.1,42,100,110,86,300,,
"O=C(O)C(F)(F)C(F)(F)C(F)(F)C(F)(F)F [PFPeA, perfluoropentanoic acid]",13,8,6,92.9,84,89.8,15,27,23,82.1,84,,
"O=C(O)C(F)(F)C(F)(F)C(F)(F)C(F)(F)C(F)(F)F [PFHxA, perfluorohexanoic acid]",75,34,23,91.5,270,86.2,86,110,150,69.2,270,,
O=S(=O)(O)C(F)(F)C(F)(F)C(F)(F)C(F)(F)C(F)(F)C(F)(F)C(F)(F)C(F)(F)F [PFOS (Potassium Salt)],,,,,,,,,,,,,"Water Solubility ([5]; filtered seawater): (freshwater), 25 (filtered mg/L; Water Solubility ([5]; freshwater): 370 mg/L; Vapor Pressure at 20° C. [6]: 2.48 × 10^−6 mm Hg"
"O=C(O)C(F)(F)C(F)(F)C(F)(F)C(F)(F)C(F)(F)C(F)(F)C(F)(F)F [PFOA, perfluorooctanoic acid]",22,4,3,91.2,34,,9,17,13,73.6,34,0,"Solubility in water ([5]; Table 2): Soluble, 9.5 g/L; Water Solubility ([5]; purified): 9.5 × 10^3 (purified) mg/L; PFOA degraded ([7]; 1 M H2O2 and 0.5 mM iron (III), within 150 minutes): 94%; PFOA degradation ([7]; reactions generating O2^− or HO2^− alone): degraded rapidly; removal in the soil series [2]: over 97%; Fluoride ions formed (molar ratio) ([9]; 6 hours): 77.5%; carbon dioxide formed (molar ratio) ([9]; 6 hours): 70.2%; aqueous phase PFOA concentration after treatment ([9]; after 6 hours, 0.6 mg/L = detection limit): less than 0.6 mg/L; Vapor Pressure at 20° C. [6]: 0.017 mm Hg; Solubility in other solvents [10]: Polar organic solvents"
"OO [H2O2, hydrogen peroxide]",,,,,,,,,,,,11.7,
"O=S(=O)(O)C(F)(F)C(F)(F)C(F)(F)C(F)(F)C(F)(F)C(F)(F)C(F)(F)C(F)(F)F [PFOS, perfluorooctane sulfonate]",340,33,44,89.8,430,,76,150,160,82.3,430,<<0,removal in the soil series [2]: over 99%
